# US7192606B2, “Drugs for treating viral infections” (priority 2004, dated 2007)
# Where two headings read alike, the source gives them in different places.
# Experiments:
# [1] = Caco-2 cell permeability assay; details: human, Caco-2
# [2] = system: Caco-2 cells; experiment: Caco-2 cell permeability assay; details: for A side % Remaining at 2 hrs: Caco-2, A side; for B side % Remaining at 2 hrs: Caco-2, B side; for A-B: Caco-2, apical to basolateral; for A-B / B-A: 25 microM, 2 hours, 37° C.; for B-A: Caco-2, basolateral to apical
# [3] = system: cowpox virus; format: cell-based
# [4] = system: variola virus (smallpox) isolates; format: cell-based
# [5] = system: monkey (Vero) cells
# [6] = system: uninfected cells
# [7] = system: stationary HFF cells; experiment: Neutral Red Uptake Assay (toxicity); details: Neutral Red Uptake
# [8] = Parallel Artificial Membrane Permeability Assay (PAMPA)-MS; details: hexadecane membrane layer, 4 hr, 50 microM in PBS, LC-MS
# [9] = system: cowpox virus; experiment: microbe, parasite or virus in culture; format: cell-based; details: HFF
# [10] = system: cowpox virus; details: cited from earlier work
# [11] = Neutral Red Uptake Assay (toxicity); details: human, stationary HFF cells
# [12] = system: vaccinia virus; format: cell-based
# [13] = system: cowpox virus; format: cell-based; remark: listed apart in the source
# [14] = system: cowpox virus; parameters: species or system BALB/c mice; details: mouse, in vivo
molecule,measurement,setting,value
"CC(C)NCC(O)COc1cccc2ccccc12 (stereo not drawn) [Propranolol, reference compound]","efflux ratio at 2 h, 25 microM",[1],1.9
same,A side % Remaining at 2 hrs,[2],68.60%
same,B side % Remaining at 2 hrs,[2],88.38%
same,A-B,[2],39.03
same,B-A,[2],72.42
"O=S(=O)(NC12CC3CC(CC(C3)C1)C2)NS(=O)(=O)NC12CC3CC(CC(C3)C1)C2 [Example 1, N,N^1-Bis(tricyclo[3.3.1.1^3,7]dec-1-yl)imidodisulfamide]",plaques at 1.0 microgram/mL,[3],tiny relative to the untreated ones
same,plaques at 3.0 microgram/mL,[3],nearly completely eliminated
same,EC50,[3]; 3 days,2.0 microgram/mL
same,average EC50,[4],0.10 microgram/mL
same,concentration up to which cell monolayers were healthy,[5],≥ 30 microgram/mL
same,CC50,[6],43.0 microgram/mL
same,A side % Remaining at 2 hrs,[2],85.05%
same,B side % Remaining at 2 hrs,[2],105.39%
same,Ratio,"[2]; Caco-2, B-A / A-B",2.1
same,A-B,[2],9.07
same,B-A,[2],18.85
same,CC50,[7],78.9 microgram/mL
same,permeability,[8],0.43 ×10⁻⁶ cm/s
"Nc1ccn(C[C@@H](CO)OCP(=O)(O)O)c(=O)n1 [CDV, reference compound]",EC90,[9],18.7 µg/mL
same,active concentration in these cells,[10],about 12.0 microgram/mL
same,CC50,[11],> 100 µg/mL
"Sodium N,N^1-(Tricyclo[3.3.1.1^3,7]dec-1-yl)imidodisulfamide [Example 11]",EC50,[12],EC50: 0.04 microgram/mL;
same,EC90,[12],EC90: 0.11 microgram/mL;
same,EC50,[13],EC50: 0.50 microgram/mL;
same,EC90,[13],EC90: 2.10 microgram/mL;
same,Lung titer on Day 3,[14],6.6±1.3
same,CC50,[7],87.6 microgram/mL
